pIC50: −log10 of the molar value.
Tested on: Plasmodium berghei
Experiment: Luciferase/luciferin-expressing antifolate-resistant parasites were used to infect a culture of HepG2 cells that were pre-incubated with compounds. Infected hepatocytes emit light due to the luciferase reaction. Assay results are presented as the percent inhibition of light emission compared to control. […]
Type: functional
Details: sporozoite; for IC90: read-out: LUCIFERASE INFECTION ASSAY - IC90

| Structure (SMILES) | IC90 [nM] | further results |
| --- | --- | --- |
| Nc1cccc2c1C(=O)N(C(=O)/C=C/c1cccc(F)c1)C2=O | > 10000 | pIC50 (HEPG2TOX_HILL_SLOPE 0.728, HEPG2TOX_R_SQUARED 0.696, PBLUC_HILL_SLOPE 1.8, PBLUC_R_SQUARED 0.344, read-out: LUCIFERASE INFECTION ASSAY - IC50): 5.09 |
| CC(C)c1ccc(/C=C/C2=NNC(=O)CC2)cc1 | > 13600 | pIC50 (HEPG2TOX_HILL_SLOPE 0.687, HEPG2TOX_R_SQUARED 0.88, PBLUC_HILL_SLOPE 0.307, PBLUC_R_SQUARED 0.14, read-out: LUCIFERASE INFECTION ASSAY - IC50): < 4.87 |
| COc1ccc(/C=C/C2=NNC(=O)CC2)cc1 | > 14300 | pIC50 (HEPG2TOX_HILL_SLOPE 0.708, HEPG2TOX_R_SQUARED 0.9, read-out: LUCIFERASE INFECTION ASSAY - IC50): < 4.84 |
| COc1ccc(Nc2cc(C)nc(-n3nc(C)cc3C)n2)cc1 | 4190 | pIC50 (HEPG2TOX_HILL_SLOPE 0.695, HEPG2TOX_R_SQUARED 0.68, PBLUC_HILL_SLOPE 2.57, PBLUC_R_SQUARED 0.661, read-out: LUCIFERASE INFECTION ASSAY - IC50): 5.75 |
| Cc1onc(-c2c(Cl)cccc2Cl)c1C(=O)N1CCCc2ccccc21 | > 8520 | pIC50 (HEPG2TOX_HILL_SLOPE 0.734, HEPG2TOX_R_SQUARED 0.611, PBLUC_HILL_SLOPE 1.71, PBLUC_R_SQUARED 0.613, read-out: LUCIFERASE INFECTION ASSAY - IC50): 5.44 |
| Oc1cc(-c2ccccc2)nc2ccccc12 | 307 | pIC50 (HEPG2TOX_HILL_SLOPE 0.704, HEPG2TOX_R_SQUARED 0.901, PBLUC_HILL_SLOPE 3.71, PBLUC_R_SQUARED 0.852, read-out: LUCIFERASE INFECTION ASSAY - IC50): 6.77 |
| c1cncc(-c2cnc3ccc(-c4ccoc4)nn23)c1 | > 10000 | pIC50 (HEPG2TOX_HILL_SLOPE 0.706, HEPG2TOX_R_SQUARED 0.847, PBLUC_HILL_SLOPE 1.15, PBLUC_R_SQUARED 0.722, read-out: LUCIFERASE INFECTION ASSAY - IC50): 5.79 |
| Cc1sc2ncnc(NC(C)c3ccc(-n4ccnc4)cc3)c2c1C (centres undefined) | > 10000 | pIC50 (HEPG2TOX_HILL_SLOPE 0.71, HEPG2TOX_R_SQUARED 0.913, PBLUC_HILL_SLOPE 1.13, PBLUC_R_SQUARED 0.519, read-out: LUCIFERASE INFECTION ASSAY - IC50): 5.59 |
| FC(F)(F)Oc1cccc(-c2nnc3ccc(-c4cccc5ncccc45)cn23)c1 | 2550 | pIC50 (HEPG2TOX_HILL_SLOPE 0.706, HEPG2TOX_R_SQUARED 0.938, PBLUC_HILL_SLOPE 2.17, PBLUC_R_SQUARED 0.421, read-out: LUCIFERASE INFECTION ASSAY - IC50): 6.03 |
| CC1(C(=O)Nc2ccncc2)CCN1Cc1ccc2ccccc2c1 (centres undefined) | 7130 | pIC50 (HEPG2TOX_HILL_SLOPE 0.704, HEPG2TOX_R_SQUARED 0.958, PBLUC_HILL_SLOPE 1.6, PBLUC_R_SQUARED 0.488, read-out: LUCIFERASE INFECTION ASSAY - IC50): 5.74 |
| CC(=O)Nc1cccc(-c2ccc3ncc(-c4ccccc4)n3n2)c1 | > 10000 | pIC50 (HEPG2TOX_HILL_SLOPE 0.716, HEPG2TOX_R_SQUARED 0.978, PBLUC_HILL_SLOPE 1, PBLUC_R_SQUARED 0.535, read-out: LUCIFERASE INFECTION ASSAY - IC50): 5.41 |
| OCc1ccccc1-c1cn2c(-c3ccc4ncccc4c3)cnc2cn1 | 468 | pIC50 (HEPG2TOX_HILL_SLOPE 0.72, HEPG2TOX_R_SQUARED 0.902, PBLUC_HILL_SLOPE 1.49, PBLUC_R_SQUARED 0.863, read-out: LUCIFERASE INFECTION ASSAY - IC50): 6.97 |
| NC(=O)c1cccc(-c2ccc3ncc(-c4cccs4)n3n2)c1 | > 10000 | pIC50 (HEPG2TOX_HILL_SLOPE 0.701, HEPG2TOX_R_SQUARED 0.861, PBLUC_HILL_SLOPE 2.21, PBLUC_R_SQUARED 0.712, read-out: LUCIFERASE INFECTION ASSAY - IC50): 5.39 |
| COc1cncc(-c2cnc3c(Nc4cc(OC)c(OC)c(OC)c4)nccn23)c1 | 297 | pIC50 (HEPG2TOX_HILL_SLOPE 0.708, HEPG2TOX_R_SQUARED 0.654, PBLUC_HILL_SLOPE 2.45, PBLUC_R_SQUARED 0.956, read-out: LUCIFERASE INFECTION ASSAY - IC50): 6.92 |
| O=C(OCc1ncc(-c2ccccc2)o1)c1cc([N+](=O)[O-])ccc1N1CCOCC1 | 3400 | pIC50 (HEPG2TOX_HILL_SLOPE 0.712, HEPG2TOX_R_SQUARED 0.947, PBLUC_HILL_SLOPE 1.1, PBLUC_R_SQUARED 0.629, read-out: LUCIFERASE INFECTION ASSAY - IC50): 6.33 |
| CC(C)c1ccc2cc(C(=O)Nc3ccc4c(c3)NC(=O)CO4)[nH]c2c1 | 2970 | pIC50 (HEPG2TOX_HILL_SLOPE 0.683, HEPG2TOX_R_SQUARED 0.922, PBLUC_HILL_SLOPE 2.26, PBLUC_R_SQUARED 0.558, read-out: LUCIFERASE INFECTION ASSAY - IC50): 5.95 |

| Structure (SMILES) | IC90 [nM] | further results |
| --- | --- | --- |
| O=C(CCc1c(-c2ccc(F)cc2)[nH]c2ccc(F)cc12)NCCN1CCOCC1 | > 10000 | pIC50 (HEPG2TOX_HILL_SLOPE 0.681, HEPG2TOX_R_SQUARED 0.0413, read-out: LUCIFERASE INFECTION ASSAY - IC50): < 5.00 |
| Clc1ccccc1-c1nc2ccnc(NCCc3ccccc3)c2[nH]1 | 7970 | pIC50 (HEPG2TOX_HILL_SLOPE 0.707, HEPG2TOX_R_SQUARED 0.751, PBLUC_HILL_SLOPE 2.17, PBLUC_R_SQUARED 0.665, read-out: LUCIFERASE INFECTION ASSAY - IC50): 5.54 |
| Cc1nn2c(=O)c(Cc3ccccc3)c(C)[nH]c2c1-c1ccc(F)cc1 | 1300 | pIC50 (HEPG2TOX_HILL_SLOPE 0.716, HEPG2TOX_R_SQUARED 0.984, PBLUC_HILL_SLOPE 2.69, PBLUC_R_SQUARED 0.765, read-out: LUCIFERASE INFECTION ASSAY - IC50): 6.24 |
| COC(=O)c1c(-c2c(Cl)cccc2Cl)noc1CC=Nc1ccc(C(=O)O)cc1 | > 7620 | pIC50 (HEPG2TOX_HILL_SLOPE 0.693, HEPG2TOX_R_SQUARED 0.602, read-out: LUCIFERASE INFECTION ASSAY - IC50): < 5.12 |
| Cc1sc2nc3n(c(=O)c2c1C)CC/C3=C/c1cccc2ccccc12 | > 10000 | pIC50 (HEPG2TOX_HILL_SLOPE 0.688, HEPG2TOX_R_SQUARED 0.114, PBLUC_HILL_SLOPE 1.25, PBLUC_R_SQUARED 0.514, read-out: LUCIFERASE INFECTION ASSAY - IC50): 5.52 |
| CSc1sc(C(=O)N/N=C/c2ccccc2Cl)c2c1C(O)CCC2 (centres undefined) | > 8660 | pIC50 (HEPG2TOX_HILL_SLOPE 0.679, HEPG2TOX_R_SQUARED 0.968, PBLUC_HILL_SLOPE 1.34, PBLUC_R_SQUARED 0.516, read-out: LUCIFERASE INFECTION ASSAY - IC50): 5.68 |
| Cc1c(Cl)c(=O)[nH]c2ccccc12 | > 17000 | pIC50 (HEPG2TOX_HILL_SLOPE 0.732, HEPG2TOX_R_SQUARED 0.944, PBLUC_HILL_SLOPE 0.944, PBLUC_R_SQUARED 0.141, read-out: LUCIFERASE INFECTION ASSAY - IC50): < 4.77 |
| Cc1ccc(S(=O)(=O)N2CCN(C(=O)C3CCN(c4nc5ccccc5o4)CC3)CC2)cc1C | 2620 | pIC50 (HEPG2TOX_HILL_SLOPE 0.685, HEPG2TOX_R_SQUARED 0.962, PBLUC_HILL_SLOPE 3.7, PBLUC_R_SQUARED 0.71, read-out: LUCIFERASE INFECTION ASSAY - IC50): 5.84 |
| c1ccc2c(NCc3ccc(N4CCCC4)nc3)ncnc2c1 | 3160 | pIC50 (HEPG2TOX_HILL_SLOPE 0.683, HEPG2TOX_R_SQUARED 0.958, PBLUC_HILL_SLOPE 1.41, PBLUC_R_SQUARED 0.701, read-out: LUCIFERASE INFECTION ASSAY - IC50): 6.18 |
| COc1ccc(C(=O)N2CCC(Cc3ccccc3)CC2)c(O)c1 | > 10000 | pIC50 (HEPG2TOX_HILL_SLOPE 0.725, HEPG2TOX_R_SQUARED 0.627, PBLUC_HILL_SLOPE 3.95, PBLUC_R_SQUARED 0.49, read-out: LUCIFERASE INFECTION ASSAY - IC50): 5.10 |
| CN(C)c1nc(N)nc(CN(Cc2nc(N)nc(N(C)C)n2)C23CC4CC(CC(C4)C2)C3)n1 | 149 | pIC50 (HEPG2TOX_HILL_SLOPE 0.693, HEPG2TOX_R_SQUARED 0.937, PBLUC_HILL_SLOPE 2.94, PBLUC_R_SQUARED 0.84, read-out: LUCIFERASE INFECTION ASSAY - IC50): 7.15 |
| Cc1nc(NCCNc2cnccn2)c2c(-c3cccs3)csc2n1 | 5980 | pIC50 (HEPG2TOX_HILL_SLOPE 0.714, HEPG2TOX_R_SQUARED 0.963, PBLUC_HILL_SLOPE 3.5, PBLUC_R_SQUARED 0.488, read-out: LUCIFERASE INFECTION ASSAY - IC50): 5.50 |
| CC(Nc1ncnc2sccc12)c1ccc(-n2cncn2)cc1 (centres undefined) | > 10000 | pIC50 (HEPG2TOX_HILL_SLOPE 0.68, HEPG2TOX_R_SQUARED 0.808, PBLUC_HILL_SLOPE 0.888, PBLUC_R_SQUARED 0.682, read-out: LUCIFERASE INFECTION ASSAY - IC50): 5.71 |
| CC(=O)Nc1cccc(-c2ccc3ncc(-c4cccs4)n3n2)c1 | > 10000 | pIC50 (HEPG2TOX_HILL_SLOPE 0.699, HEPG2TOX_R_SQUARED 0.927, PBLUC_HILL_SLOPE 0.967, PBLUC_R_SQUARED 0.554, read-out: LUCIFERASE INFECTION ASSAY - IC50): 5.55 |
| COc1cc(-c2cc(-c3cc4ccccc4s3)cnc2N)cc(OC)c1OC | > 8410 | pIC50 (HEPG2TOX_HILL_SLOPE 0.717, HEPG2TOX_R_SQUARED 0.312, PBLUC_HILL_SLOPE 43.5, PBLUC_R_SQUARED 0.0859, read-out: LUCIFERASE INFECTION ASSAY - IC50): 5.08 |
| COc1cc(-c2cc(-c3ccc(S(C)(=O)=O)cc3)cnc2N)ccc1O | 1100 | pIC50 (HEPG2TOX_HILL_SLOPE 0.691, HEPG2TOX_R_SQUARED 0.303, PBLUC_HILL_SLOPE 2.60E+03, PBLUC_R_SQUARED 0.903, read-out: LUCIFERASE INFECTION ASSAY - IC50): 5.96 |

From ChEMBL document CHEMBL4483862, “Open-source discovery of chemical leads for next-generation chemoprotective antimalarials” (2018)
